This assay concerns the target T1, CETP (Homo sapiens, UniProt P11597).
T1 construct: enriched CETP fraction, obtained from human plasma by means of hydrophobic chromatography; from tissue; host or cells: human plasma
T1 sequence (P11597 18-493): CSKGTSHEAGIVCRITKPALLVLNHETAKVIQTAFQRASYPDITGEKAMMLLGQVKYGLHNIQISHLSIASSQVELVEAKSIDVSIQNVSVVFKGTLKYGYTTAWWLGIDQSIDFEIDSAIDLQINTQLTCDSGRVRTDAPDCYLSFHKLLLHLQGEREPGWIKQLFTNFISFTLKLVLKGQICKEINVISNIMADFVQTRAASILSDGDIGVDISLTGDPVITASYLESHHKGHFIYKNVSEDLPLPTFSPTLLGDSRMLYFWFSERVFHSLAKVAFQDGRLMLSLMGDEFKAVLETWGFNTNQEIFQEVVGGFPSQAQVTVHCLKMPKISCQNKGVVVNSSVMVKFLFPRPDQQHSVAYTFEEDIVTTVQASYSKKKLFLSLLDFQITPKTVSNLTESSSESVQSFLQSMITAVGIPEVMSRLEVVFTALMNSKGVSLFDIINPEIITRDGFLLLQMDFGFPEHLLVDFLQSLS
Nature of the assay: CETP fluorescence test. In kind it is biochemical. To be noted: CETP from human plasma, transfer of fluorescent cholesterol ester between liposomes, 37° C., 4 hours; read-out: IC50 [nM] Fluor. test. As to the method: CETP is obtained in partially purified form from human plasma by differential centrifugation and column chromatography and used for the test. To this end, human plasma is adjusted to a density of 1.21 g per ml using NaBr and centrifuged at 4° C. at 50 000 rpm for 18 h. The bottom fraction (d>1.21 g/ml) is applied to a Sephadex® Phenyl-Sepharose 4B (Pharmacia) column, washed with 0.15 M NaCl/0.001 M tris HCl pH 7.4 and then eluted with distilled water. The CETP-active fractions are pooled, dialysed against 50 mM sodium acetate pH 4.5 and applied to a CM-Sepharose® column (Pharmacia). The mixture is then eluted using a linear gradient (0-1 M NaCl). The pooled CETP fractions are dialysed against 10 mM Tris HCl pH 7.4 and then further purified by chromatography on a Mono Q® column (Pharmacia).
Measurement of the CETP-catalysed transfer of a fluorescent cholesterol ester between liposomes—modified according to the procedure of Bisgaier et al., J. Lipid Res. 34, 1625 (1993):
For the production of the donor liposomes, 1 mg of cholesteryl 4,4-difluoro-5,7-dimethyl-4-bora-3a,4a-diaza-s-indacene-3-dodecanoate (cholesteryl BODIPY® FL C12, Molecular Probes) is dissolved in 600 μl of dioxane with 5.35 mg of triolein and 6.67 mg of phosphatidylcholine with gentle warming in an ultrasonic bath and this solution is added very slowly with ultrasonication to 63 ml of 50 mM tris/HCl, 150 mM NaCl, 2 mM EDTA buffer pH 7.3 at RT.
The suspension is then ultrasonicated under an N2 atmosphere for 30 minutes in the Braukson ultrasonic bath at about 50 watts, the temperature being kept at about 20° C.
The acceptor liposomes are obtained analogously from 86 mg of cholesteryl oleate, 20 mg of triolein and 100 mg of phosphatidylcholine dissolved in 1.2 ml of dioxane and 114 ml of above buffer by ultrasonication at 50 watts (20° C.) for 30 minutes.
For testing, a test mix consisting of 1 part of above buffer, 1 part of donor liposomes and 2 parts of acceptor liposomes is used.
80 μl of test mix are treated with 1-3 μg of enriched CETP fraction, obtained from human plasma by means of hydrophobic chromatography, and 2 μl of the substance to be investigated in DMSO and incubated at 37° C. for 4 hours.
The change in the fluorescence at 485/535 nm is a measure of the CE transfer; the inhibition of the transfer in comparison to the control batch without substance is determined.

Data on 29 molecules can be found in patent US20060247303A1, “7H-dibenzo[b,g][1,5]dioxocin-5-one derivatives and use thereof” (BAYER HEALTHCARE AG, priority 2002, published 2006).

For orientation: IC50 means the midpoint of a concentration-inhibition curve. Take `COc1c([C@@H](O)CC(C)C)ccc2c1C(=O)OCc1c(Cl)c(C)c(Cl)c(OC(=O)C(C)(C)C)c1O2` [Example A-47]: the IC50 was 200 nM. `COc1c([C@@H](O)CC(C)C)ccc2c1C(=O)OCc1cc(C)cc(OS(=O)(=O)C(C)C)c1O2` [Example A-42, 9-[(1S)-1-Hydroxy-3-methylbutyl]-8-methoxy-3-methyl-7-oxo-5H,7H-dibenzo[b,g]-[1,5]-dioxocin-1-yl 2-propanesulphonate]: the IC50 amounted to 700 nM. In the case of `COc1c([C@@H](O)CC(C)C)ccc2c1C(=O)OCc1c(Cl)c(C)c(Br)c(OC(=O)C3(C)C4CCC3CC4)c1O2` (some centres unmarked) [Example C-37], the IC50 stood at 60 nM. Then `COc1c([C@@H](O)CC(C)C)ccc2c1C(=O)OCc1cc(C(F)F)cc(OCCC(C)C)c1O2` [Example B-176, 9-(Difluoromethyl)-3-[(1S)-1-hydroxy-3-methylbutyl]-11-(isopentyloxy)-4-methoxy-5H,7H-dibenzo[b,g][1,5]dioxocin-5-one], with 5000 nM; and `COc1c(C(O)CC(C)C)ccc2c1C(=O)OCc1cc(C)cc(C#CCC(C)C)c1O2` (centres unmarked) [Example A-63], with 2000 nM. Then `COc1c([C@@H](O)CC(C)C)ccc2c1C(=O)OCc1cc(C)cc(OC(=O)C3(C)CC3(F)F)c1O2` (some centres unmarked) [Example B-22], with 700 nM; and `COc1c([C@@H](O)CC(C)C)ccc2c1C(=O)OCc1c(Cl)c(C)c(Br)c(OC(=O)C3(C)CCCCC3)c1O2` [Example C-67], with 90 nM; and `COc1c(C(O)CC(C)C)ccc2c1C(=O)OCc1cc(C)cc(CCC3CCCC3)c1O2` (centres unmarked) [Example A-70, 11-(2-Cyclopentylethan-1-yl)-3-(1-hydroxy-3-methylbutyl)-4-methoxy-9-methyl-5H,7H-dibenzo[b,g][1,5]dioxocin-5-one], with 2000 nM. To `CCc1c(C)cc2c(c1OC(=O)[C@@]1(C)C[C@H]3CC[C@@H]1C3)Oc1ccc([C@@H](O)CC(C)C)c(OC)c1C(=O)OC2` [Example C-91] belongs 40 nM; to `COc1c([C@@H](O)CC(C)C)ccc2c1C(=O)OCc1cc(C)cc(OCC3CC4C=CC3C4)c1O2` (stereo partly drawn) [Example B-5, 3-[(1S)-1-Hydroxy-3-methylbutyl]-4-methoxy-9-methyl-11-(bicyclo[2.2.1]hept-5-en-2-ylmethoxy)-5H,7H-dibenzo[b,g][1,5]dioxocin-5-one], 1500 nM. Regarding `COc1c(C(O)CC(C)(C)C)ccc2c1C(=O)OCc1cc(C)cc(OCCC(C)C)c1O2` (centres unmarked) [Example A-55, 3-(1-Hydroxy-3,3-dimethylbutyl)-11-(isopentyloxy)-4-methoxy-9-methyl-5H,7H-dibenzo[b,g][1,5]dioxocin-5-one], the IC50 is 1500 nM.

For the molecule `COc1c([C@@H](O)CC(C)C)ccc2c1C(=O)OCc1c(Cl)c(C)c(Br)c(OC(=O)C3CCC3)c1O2` [Example B-50], the IC50 was 250 nM. To `COc1c([C@@H](O)CC(C)C)ccc2c1C(=O)OCc1c(Cl)c(C)c(C)c(OC(=O)[C@@]3(C)C[C@H]4CC[C@@H]3C4)c1O2` [Example C-47] belongs 50 nM. Then `COc1c([C@@H](O)CC(C)C)ccc2c1C(=O)OCc1cc(C)c(Cl)c(OC(=O)[C@@]3(C)C[C@H]4CC[C@@H]3C4)c1O2` [Example C-22], with 75 nM; and `COc1c([C@@H](O)CC(C)C)ccc2c1C(=O)OCc1c(Br)c(C)c(Br)c(OCCCC(F)(F)F)c1O2` [Example B-1, 8,10-Dibromo-3-[(1S)-1-hydroxy-3-methylbutyl]-4-methoxy-9-methyl-11-(4,4,4-trifluorobutoxy)-5H,7H-dibenzo[b,g][1,5]dioxocin-5-one], with 1000 nM; and `COc1c([C@@H](O)CC(C)C)ccc2c1C(=O)OCc1c(C#N)c(C)cc(OCCC(C)C)c1O2` [Example A-78, 9-[(1S)-1-Hydroxy-3-methylbutyl]-1-(isopentyloxy)-8-methoxy-3-methyl-7-oxo-5H,7H-dibenzo[b,g][1,5]dioxocin-4-carbonitrile], with 3000 nM.

Turning to `COc1c([C@@H](O)CC(C)C)ccc2c1C(=O)OCc1c(Cl)c(C)c(Cl)c(OC(=O)N3CC4CCC(C3)O4)c1O2` [Example B-165], the IC50 came out at 300 nM. Take `CCc1c(C)c(Cl)c2c(c1OC(=O)C1(C)C3CCC1CC3)Oc1ccc([C@@H](O)CC(C)C)c(OC)c1C(=O)OC2` (some centres unmarked) [Example C-65]: the IC50 amounted to 50 nM. Then `COc1c([C@@H](O)CC(C)C)ccc2c1C(=O)OCc1c(Cl)c(C)cc(OC(=O)C(C)(C)CF)c1O2` [Example B-42], with 300 nM.

As for `COc1c([C@@H](O)CC(C)C)ccc2c1C(=O)OC(C)c1cc(C)cc(OCCC(C)C)c1O2` (mixture of isomers) [Example A-80, [(1S)-1-Hydroxy-3-methylbutyl]-11-(isopentyloxy)-4-methoxy-7,9-dimethyl-5H,7H-dibenzo[b,g][1,5]dioxocin-5-one], the IC50 turned out to be 5000 nM.

As for `COc1c([C@@H](O)CC(C)C)ccc2c1C(=O)OCc1c(C)c(C)c(C)c(OC(=O)C(C)(C)C)c1O2` [Example A-35], the IC50 came to 200 nM. `COc1c([C@@H](O)CC(C)C)ccc2c1C(=O)OCc1c(Br)c(C)c(Cl)c(OC(=O)[C@@]3(C)C[C@H]4CC[C@@H]3C4)c1O2` [Example C-21]: the IC50 came to 70 nM. Take `COc1c(C(O)CC(C)(C)C)ccc2c1C(=O)OCc1c(Cl)c(C)c(C3CC3)c(OC(=O)C3(C)C4CCC3CC4)c1O2` (centres unmarked) [Example C-62]: the IC50 is 60 nM. Then `COc1c(C(O)CC(C)C)ccc2c1C(=O)OCc1c(F)c(C)c(C)c(OC(=O)C3(C)C4CCC3CC4)c1O2` (centres unmarked) [Example C-128], with 55 nM; and `COc1c([C@@H](O)CC(C)C)ccc2c1C(=O)OCc1cc(C)cc(OC(=O)C3(c4cccc(F)c4)CCCCC3)c1O2` [Example B-8], with 1000 nM; and `COc1c([C@@H](O)CC(C)C)ccc2c1C(=O)OCc1c(C)c(C)c(C)c(OC(=O)C3(C)C4CCC3CC4)c1O2` (some centres unmarked) [Example C-82], with 60 nM. To `COCc1c(C)c(Cl)c2c(c1OC(=O)C1(C)C3CCC1CC3)Oc1ccc([C@@H](O)CC(C)C)c(OC)c1C(=O)OC2` (some centres unmarked) [Example C-66] belongs 50 nM; to `COc1c([C@@H](O)CC(C)C)ccc2c1C(=O)OC(C)c1cc(C)cc(OC(=O)C3(C)C4CCC3CC4)c1O2` (some centres unmarked) [Example C-120], 100 nM. Then `COc1c(C(O)CC(C)C)ccc2c1C(=O)OCc1c(F)c(C)cc(OCCC(C)C)c1O2` (centres unmarked) [Example A-64], with 500 nM.
